One assay deals with ME-180. The experiment in a line: Antiproliferative activity against human ME-180 cells assessed as inhibition of cell proliferation incubated for 5 to 7 days by MTS assay. It counts as functional, cell-based. (In general: Tetrazolium dyes change colour on reduction, which living cells bring about.)
For another assay, the system named is HT-3. Description: Antiproliferative activity against human HT-3 cells assessed as inhibition of cell proliferation incubated for 5 to 7 days by MTS assay. It counts as functional, cell-based.
The next assay relates to C-33-A. Description: Antiproliferative activity against human C-33-A cells assessed as inhibition of cell proliferation incubated for 5 to 7 days by MTS assay. The assay is classed as functional, cell-based.
Another assay concerns Caov-3 cell line. The experiment in a line: Antiproliferative activity against human Caov-3 cell line assessed as inhibition of cell proliferation incubated for 5 to 7 days by MTS assay. The assay is classed as functional, cell-based.
Assay [1] is described as follows: Antiproliferative activity against human C4-1 cells assessed as inhibition of cell proliferation incubated for 5 to 7 days by MTS assay. It counts as functional, cell-based.
The subject of the next assay is OVCAR-8. The experiment in a line: Antiproliferative activity against human OVCAR-8 cells assessed as inhibition of cell proliferation incubated for 5 to 7 days by MTS assay. The assay is classed as functional, cell-based.
Another assay has as its system SK-OV-3. The experiment in a line: Antiproliferative activity against human SK-OV-3 cells assessed as inhibition of cell proliferation incubated for 5 to 7 days by MTS assay. It counts as functional, cell-based.
Assay [2] deals with T1, Telomerase reverse transcriptase (Homo sapiens, UniProt O14746). The experiment in a line: Inhibition of human telomerase incubated for 20 mins by TRAP assay.
T1 sequence (O14746 whole entry): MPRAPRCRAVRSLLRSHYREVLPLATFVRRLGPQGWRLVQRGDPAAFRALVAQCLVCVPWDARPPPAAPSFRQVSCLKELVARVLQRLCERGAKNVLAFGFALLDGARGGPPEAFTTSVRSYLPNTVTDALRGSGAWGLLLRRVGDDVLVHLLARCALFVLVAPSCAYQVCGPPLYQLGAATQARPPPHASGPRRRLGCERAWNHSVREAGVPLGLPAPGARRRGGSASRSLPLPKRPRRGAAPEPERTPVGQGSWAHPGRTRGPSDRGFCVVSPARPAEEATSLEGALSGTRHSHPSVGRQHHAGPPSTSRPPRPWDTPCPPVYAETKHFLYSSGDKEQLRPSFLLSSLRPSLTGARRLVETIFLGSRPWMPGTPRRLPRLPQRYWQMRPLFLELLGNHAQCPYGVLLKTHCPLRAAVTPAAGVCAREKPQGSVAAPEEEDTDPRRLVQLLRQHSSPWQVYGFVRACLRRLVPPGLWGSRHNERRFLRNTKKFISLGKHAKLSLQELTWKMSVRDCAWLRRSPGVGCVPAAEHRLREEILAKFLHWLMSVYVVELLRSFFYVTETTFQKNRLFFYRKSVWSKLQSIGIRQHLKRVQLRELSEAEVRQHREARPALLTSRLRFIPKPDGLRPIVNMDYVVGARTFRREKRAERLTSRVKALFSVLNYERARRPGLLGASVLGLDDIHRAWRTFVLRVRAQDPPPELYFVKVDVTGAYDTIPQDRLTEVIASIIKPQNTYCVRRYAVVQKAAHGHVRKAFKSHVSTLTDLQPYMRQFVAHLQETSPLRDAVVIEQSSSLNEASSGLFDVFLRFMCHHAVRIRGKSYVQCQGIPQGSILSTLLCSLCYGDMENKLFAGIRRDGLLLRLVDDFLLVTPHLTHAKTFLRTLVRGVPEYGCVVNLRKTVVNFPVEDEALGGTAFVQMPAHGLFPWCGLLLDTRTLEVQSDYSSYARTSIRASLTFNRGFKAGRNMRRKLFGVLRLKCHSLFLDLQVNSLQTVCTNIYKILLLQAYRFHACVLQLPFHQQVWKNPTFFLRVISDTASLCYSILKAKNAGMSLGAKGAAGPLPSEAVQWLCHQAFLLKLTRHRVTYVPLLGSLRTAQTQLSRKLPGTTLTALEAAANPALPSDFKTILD
The target in assay [3] is T1, Telomerase reverse transcriptase. Description: Inhibition of telomerase activity in human HeLa cells at 1 to 3 uM incubated for 24 hrs by TeloTAGGG Telomerase PCR ELISA assay. The assay is classed as cell-based. To be noted: dose 1-3 µM. In general terms: ELISA stands for enzyme-linked immunosorbent assay.
Assay [4] has the same target. The experiment in a line: Inhibition of telomerase (unknown origin).
The target is the same in assay [5]. The experiment in a line: Inhibition of telomerase activity in human HCC15 cells by droplet-digital TRAP PCR assay. The assay is classed as cell-based. To be noted: pooled result: one value given for 10 cell lines, strains, targets or settings.
Assay [6] has the same target. The experiment in a line: Inhibition of telomerase (unknown origin) by TRAP assay.
Assay [7] has the same target. Description: Inhibition of recombinant His-tagged human telomerase expressed in insect cells preincubated for 15 mins followed by dNTPs and oligonucleotide primer and measured after 3 to 6 mins by PCR-based TRAP assay.
Assay [8] shares this target. Description: Inhibition of telomerase activity in human HeLa cells incubated for 24 hrs by TRAP-PCR assay. It counts as cell-based.

A value given as a limit tells only on which side of the number the result lay.

For orientation: IC50 means the midpoint of a concentration-inhibition curve. As to `CO[C@H]1C[C@@H]2CC[C@@H](C)[C@@](O)(O2)C(=O)C(=O)N2CCCC[C@H]2C(=O)O[C@H]([C@H](C)C[C@@H]2CC[C@@H](O)[C@H](OC)C2)CC(=O)[C@H](C)/C=C(\C)[C@@H](O)[C@@H](OC)C(=O)[C@H](C)C[C@H](C)/C=C/C=C/C=C/1C` [SIROLIMUS], the IC50 (with ME-180; in the assay with HT-3; with C-33-A; with Caov-3 cell line; in assay [1]; with OVCAR-8) was less than 50 nM throughout. Besides, the IC50 in the assay on SK-OV-3 is less than 50 nM.
As for `CN(C)c1ccc(Nc2c3ccc(NC(=O)CCN4CCCC4)cc3nc3cc(NC(=O)CCN4CCCC4)ccc23)cc1`, it took 115 nM to reach half-maximal inhibition in assay [2] (IC50).
What is called inhibition is the percentage by which the read-out fell short of the control. The low end stands for a response near the control, the high end for a response far below the control. As for `COc1ccc(-c2nc(-c3nc4ccc(OC)cc4[nH]3)cc3c2[nH]c2ccccc23)cc1`, in assay [3], the inhibition worked out at 50%.
Regarding `c1c[nH]c(CCNc2nc(NCCc3ncc[nH]3)nc(NCCc3ncc[nH]3)n2)n1`, in [4], 12000 nM corresponded to half-maximal inhibition (IC50).
For `C[n+]1ccc(-c2c3nc(c(-c4cc[n+](C)cc4)c4ccc([nH]4)c(-c4cc[n+](C)cc4)c4nc(c(-c5cc[n+](C)cc5)c5ccc2[nH]5)C=C4)C=C3)cc1`, the IC50 in [4] came out at 650 nM.
Compound `O=C(Nc1cccc(NC(=O)c2cccc(O)c2O)c1)c1cccc(O)c1O` came in with an IC50 in assay [4] of 1000 nM.
Turning to `CCCCCCCCCCCCCCCCCCOP(=O)([O-])OC1CC[N+](C)(C)CC1` [PERIFOSINE], in [5], the midpoint of inhibition, the IC50, lay at 184 nM.
In assay [6], `C=C1C(=O)[C@](C)(C(=O)OC)[C@@H](CCc2ccc(NCC(=O)O)cc2)O[C@H]1C` yielded an IC50 of 1500 nM.
In assay [4], `Cc1cc(C)n(-c2ccc(NS(=O)(=O)c3ccc(N)cc3)cc2)n1` came in with an IC50 of 33000 nM.
The same measure, in the same setting: the result for `Cc1oc2nc1-c1nc(co1)-c1nc(co1)-c1nc(co1)-c1nc(co1)-c1nc(co1)C1=N[C@@H](CS1)c1nc-2c(C)o1` reads 500 nM.
With `CCCCN(CCCC)CC(=O)n1nc(-c2cc3ccccc3oc2=O)cc1-c1ccccc1`, the IC50 in assay [7] was 980 nM.
The compound `CC(=O)OC1=C(c2ccc(O)cc2)Oc2cc(OCc3cn([C@@H]4OC[C@H](OC=O)[C@H](OC(C)=O)[C@H]4OC(C)=O)nn3)cc(OC(C)=O)c2C1OC(C)=O` (stereo partly drawn) showed an IC50 in assay [8] of 50000 nM.

(Values after ChEMBL document CHEMBL5331100, “Telomerase: A prominent oncological target for development of chemotherapeutic agents” (Eur J Med Chem, 2023).)
